In patent US5399566A, “Pyridine derivatives having angiotensin II antagonism” (Meiji Seika Kabushiki Kaisha, priority 1990, dated 1995):

Tests used:
[1] = target: T1, contraction response to angiotensin II at the isolated thoracic aorta of rabbit (Oryctolagus cuniculus, UniProt P34976); experiment: In vitro angiotensin II antagonism, isolated rabbit thoracic aorta (Schild pA2); type: cell-based; conditions: Schild plot
T1 construct: A strip of thoracic aorta of a male rabbit (2.5-3.0 kg) was prepared by the usual method; from tissue; host or cells: rabbit thoracic aorta strip
T1 sequence (P34976 1-359): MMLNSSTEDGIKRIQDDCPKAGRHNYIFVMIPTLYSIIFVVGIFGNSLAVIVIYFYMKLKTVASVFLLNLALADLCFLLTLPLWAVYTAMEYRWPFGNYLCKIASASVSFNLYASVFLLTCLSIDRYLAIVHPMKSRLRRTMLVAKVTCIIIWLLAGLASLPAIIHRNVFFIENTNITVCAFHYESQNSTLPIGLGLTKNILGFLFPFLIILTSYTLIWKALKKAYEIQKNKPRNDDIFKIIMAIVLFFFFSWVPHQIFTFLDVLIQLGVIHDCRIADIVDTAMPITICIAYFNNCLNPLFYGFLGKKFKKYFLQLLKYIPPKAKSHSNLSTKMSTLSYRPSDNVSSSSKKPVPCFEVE
Description: (§1) The angiotensin II antagonistic activities in vitro were compared on the basis of the intensities (pA2 value) of antagonizing the contraction response to angiotensin II at the isolated thoracic aorta of rabbit. The in vivo activities were examined by comparing the inhibitory effects on the hypertensive action by an exogenous angiotensin II in a non-anesthetized rat and the hypotensive effects of a renal hypertensive rat or a spontaneously hypertensive rat.
A strip of thoracic aorta of a male rabbit (2.5-3.0 kg) was prepared by the usual method and suspended in an organ bath containing well oxygenated Krebs-Henseleit solution at 37° C. The pA2 value was calculated according to the method described by H. O. Schild (British Journal of Pharmacology and Chemotherapeutics, 2, 189-206, 1947). A strip treated with 3-5 doses of a subject compound in an amount of 10^-6 M-10^-10 M and a strip treated with no drug were employed for obtaining a dose-response curve by angiotensin II. Log (dose ratio--1) was calculated from the shift of the dose-response curve of the subject compound, and pA2 value was obtained from the Schild plottings.

[2] = tested on: spontaneously hypertensive rats; experiment: Hypotensive effect in spontaneously hypertensive rats (SHR); type: in vivo, male spontaneously hypertensive rats; conditions: oral, 10 mg/kg
Procedure: The subject compounds were administered orally in the same manner as in the paragraph 1-3 to male spontaneously hypertensive rats (28 weeks old, Charles-River Co.), which were measured mean blood pressure and heart rate.

[3] = tested on: electric shock induced amnesia mice; experiment: Cognitive enhancing effect, step through passive avoidance in electric shock induced amnesia mice; type: in vivo, ddY strain male mice; conditions: oral, 10 μg/kg
Procedure: In order to examine the influence of the compounds on the learning and memory facilitating, an amnesia model with use of electric shock in a step through type passive avoidance box (PA-M5 model; OBARA IKA-SANGYOSHA) in accordance with the method described by C. Giurgea et al. (Progressive of Neuropsychopharmacology, 1, 235-247 (1977)) was used.
The subject compounds were orally administered at a dose of 1 ng/kg -1 mg/kg in the form of a homogeneous suspension in a 0.5% aqueous carboxymethylcellulose solution to ddY strain male mice (4-5 weeks) 1 hour before acquisition-trial and 1 hour before retrievaltrial. The animal was first placed in the light chamber, and the door at the boundary between the light and dark chamber was opened after 30 seconds. At the same time as the animal stepped into the dark chamber, electric footshock (40 V) was delivered to the floor of the dark chamber so that the animal acquired avoidance response (acquisition-trial). […] That is, the animal was placed again in the light chamber, the door was opened after 30 seconds, and the latency of the animal into the dark -chamber was measured for up to 600 seconds, so that the time was compared with that of the solvent administered group in which amnesia had been caused by electric shock.

[4] = tested on: hypertensive action by angiotensin II; experiment: Inhibition on the hypertensive action by an exogenous angiotensin II in conscious rats; type: in vivo, Spraque-Dawley (SD) male rats; conditions: oral; for ED50: Rattus norvegicus, within 6 hours after administration, read-out: ED50 (dose required for inhibiting the hypertensive action by angiotensin II to the extent of 50%); for inhibitory effect on the hypertensive action by angiotensin II: dose of 1 mg/kg or less, angiotensin II 0.1 μg/kg i.v.
Description: as §1
Anesthetized Spraque-Dawley (SD) male rats were cannulated into a femoral artery and a femoral vein and used for the experiment at the time when it has elapsed at least 24 hours after the operation. The hypertensive action caused by angiotensin II (0.1 μg/kg) which has been administered through the vein catheter was measured under conscious and unrestrained condition before and after administration of the compound. The artery catheter was connected to a pressure transducer to measure a mean blood pressure, and the subject compounds were orally administered in the form of a homogeneous suspension in a 0.5% aqueous carboxymethyl cellulose solution.
The intensities of the inhibitory effects within 6 hours after administration of the compound were examined on the basis of the dose of the compound required for inhibiting the hypertensive action by angiotensin II to the extent of 50% (ED50 values).

Renal hypertensive rats = experiment: Hypotensive effect in renal hypertensive rats (RHR); type: in vivo, Spraque-Dawley (SD) male rats; conditions: oral, 3 mg/kg
Procedure: Renal hypertensive rats, a model of high-renin hypertension, were prepared according to the method of J. L. Cangiano et al. (Journal of Pharmacology and Experimental Therapeutics, 208, 310-313, 1979). That is, the experiment was conducted with Spraque-Dawley (SD) male rats (250-300 g), which were ligated the left renal artery with a thread under the anesthetic condition, so that the systolic blood pressure was increased more than 150 mmHg on 1 week after the operation. The subject compounds were orally administered in the form of a homogeneous suspension in a 0.5% aqueous carboxymethylcellulose solution, and a mean blood pressure was measured in the same manner as in the paragraph 1-2. Heart rate was counted with a cardiotachmeter triggered by the arterial pulse.

[5] = Toxicity test, oral, mice; conditions: mouse, in vivo, ddY male mice 5 weeks old
Procedure: Several compounds of the present invention represented by the general formula (I) were administered orally by compulsion to ddY male mice of 5 weeks old (average weight, ca. 20 g).

ddY male mice = experiment: Antianxiety effect, light and dark box; type: in vivo; conditions: oral, 0.1 μg/kg, 1 hour
Procedure: (§2) The subject compounds were examined on their antianxiety effect with the light and dark box according to the method described by B. Costall et al. (Pharmacology Biochemistry and Behavior, 32, 777-785, 1989) and with the elevated plus maze by S. Pell et al. (Journal of Neuroscience Methods, 14, 149-167, 1985).
The subject compounds were administered orally to ddY male mice (4-5 weeks old) at a dose of 0.1-1000 μg/kg. After 1 hour they were placed in the light chamber of the light and dark box, and after 10 seconds the door at the boundary between the light chamber and the dark chamber was opened. The behavior of the animals in the light and dark box under a sound-proof condition for four minutes was observed and examined by comparing the measurements of latency to the dark chamber, shuttling between the light and dark chambers and duration in the light chamber with those in the group to which only a solvent was administered. The subject compounds were orally administered in the form of a homogeneous suspension or solution in a 0.5% aqueous carboxymethyl cellulose solution.

Fisher 344 male rats = experiment: Antianxiety effect, elevated plus maze; type: in vivo; conditions: oral, 1 μg/kg, 1 hour
Procedure: as §2
To Fisher 344 male rats (5-6 weeks old), the subject compounds were orally administered at a dose of 1-100 μg/kg in the form of a homogeneous suspension or solution in a 0.5% aqueous carboxymethyl cellulose solution. Among the four arms of the elevated plus maze (a device in which four arms are intersected crosswise and connected together at a height of 50 cm from the floor), the two arms with side walls are referred to as closed arms and the two arms without side walls are referred to as open arms. […] As the indices of the behavior, the latency until stepped out from the arm first placed to the other arm and the durations in the respective arms were measured, and the other behaviors were recorded. Diazepam was used as a control agent, and the drug administered group and the solvent administered group (group to which a 0.5% aqueous carboxymethyl cellulose solution was administered)were compared for the behaviors.

SD female rats = conditions: rat, in vivo, po, 100 mg/kg

Structure (SMILES)	Kb [1]	depression of blood pressure [2]	hypotensive effect [2]	latency into the dark chamber (passive avoidance response) [3]	ED50 [4]	inhibitory effect on the hypertensive action by angiotensin II [4]	depression of blood pressure (Renal hypertensive rats)	hypotensive effect (Renal hypertensive rats)	LD50 [5]	duration in the light chamber (ddY male mice)	latency to the dark chamber (ddY male mice)	duration out of the closed arm (Fisher 344 male rats)	transitions (Fisher 344 male rats)	symptom of toxicity (SD female rats)
COc1c(OCc2ccc(-c3ccccc3-c3nnn[nH]3)cc2)cc(C)nc1C [Example 11, 3-methoxy-2,6-dimethyl-4-[2'-(tetrazol-5-yl)biphenyl-4-yl]methoxypyridine]	6.31 nM	approximately 20%	significant hypotensive effect	significant prolongation of the latency into the dark chamber	0.54 mg/kg	significant inhibitory effects	20-26%	significant long-lasting hypotensive effect	> 1000 mg/kg	increased	increased			
CCOC(=O)c1c(OCc2ccc(-c3ccccc3-c3nnn[nH]3)cc2)cc(C)nc1CC [Example 45, 3-ethoxycarbonyl-2-ethyl-6-methyl-4-[2'-(tetrazol-5-yl)-biphenyl-4-yl]methoxypyridine]	6.76 nM	approximately 20%	significant hypotensive effect		0.52 mg/kg	significant inhibitory effects	20-26%	significant long-lasting hypotensive effect	> 1000 mg/kg			increasing tendency	significant increase	no symptom of toxicity was observed
